Source: the NIST ThermoML archive (doi:10.1016/j.tca.2011.12.010)
“And” between values parts separate entries of the source, which are not always exact repeats. Identical values can stand only once.

Assay: molar heat capacity at constant pressure
Details: 101.33 kPa, Small sample (50 mg) DSC

O=[N+]([O-])[O-].O=[N+]([O-])[O-].O=[N+]([O-])[O-].O=[N+]([O-])[O-].[K+].[K+].[Mg+2] [bis-potassium magnesium nitrate]
Details	molar heat capacity at constant pressure
382 K, Crystal 2	376.3 J/K/mol
383 K, Crystal 2	377.7 J/K/mol
384 K, Crystal 2	379.1 J/K/mol
385 K, Crystal 2	380.8 J/K/mol
386 K, Crystal 2	381.9 J/K/mol
387 K, Crystal 2	382.2 J/K/mol
388 K, Crystal 2	382.6 J/K/mol
389 K, Crystal 2	385 J/K/mol
390 K, Crystal 2	386.8 J/K/mol
391 K, Crystal 2	388.2 J/K/mol
392 K, Crystal 2	389.6 J/K/mol
393 K, Crystal 2	391.3 J/K/mol
394 K, Crystal 2	393.8 J/K/mol
395 K, Crystal 2	395.2 J/K/mol
396 K, Crystal 2	397.6 J/K/mol
397 K, Crystal 2	399.7 J/K/mol
398 K, Crystal 2	401.5 J/K/mol
399 K, Crystal 2	403.2 J/K/mol
400 K, Crystal 2	405.3 J/K/mol
401 K, Crystal 2	409.5 J/K/mol
402 K, Crystal 2	412.7 J/K/mol
403 K, Crystal 2	422.1 J/K/mol and 428.4 J/K/mol
403.15 K, Crystal 2	428.4 J/K/mol
404 K, Crystal 2	811 J/K/mol
405 K, Crystal 1	1042.3 J/K/mol
406 K, Crystal 1	900.2 J/K/mol
407 K, Crystal 1	714.4 J/K/mol
408 K, Crystal 1	611.1 J/K/mol
409 K, Crystal 1	562.5 J/K/mol
410 K, Crystal 1	518 J/K/mol
411 K, Crystal 1	464.1 J/K/mol
412 K, Crystal 1	426.3 J/K/mol
413 K, Crystal 1	409.2 J/K/mol
414 K, Crystal 1	403.6 J/K/mol
415 K, Crystal 1	402.9 J/K/mol
415.15 K, Crystal 1	402.9 J/K/mol
416 K, Crystal 1	403.2 J/K/mol
417 K, Crystal 1	403.6 J/K/mol
418 K, Crystal 1	404.3 J/K/mol
419 K, Crystal 1	405.3 J/K/mol
420 K, Crystal 1	406.4 J/K/mol
421 K, Crystal 1	409.2 J/K/mol
422 K, Crystal 1	408.5 J/K/mol
423 K, Crystal 1	407.8 J/K/mol
424 K, Crystal 1	407.3 J/K/mol
425 K, Crystal 1	408.5 J/K/mol
426 K, Crystal 1	406.3 J/K/mol
427 K, Crystal 1	405.9 J/K/mol
428 K, Crystal 1	404.1 J/K/mol
429 K, Crystal 1	403.2 J/K/mol
430 K, Crystal 1	405 J/K/mol and 410 J/K/mol
431 K, Crystal 1	407.1 J/K/mol
432 K, Crystal 1	409.5 J/K/mol
433 K, Crystal 1	412.7 J/K/mol
434 K, Crystal 1	415.1 J/K/mol
435 K, Crystal 1	417.2 J/K/mol
436 K, Crystal 1	419 J/K/mol
437 K, Crystal 1	417.6 J/K/mol
438 K, Crystal 1	420 J/K/mol
439 K, Crystal 1	421.4 J/K/mol
440 K, Crystal 1	425.3 J/K/mol
441 K, Crystal 1	427.7 J/K/mol
442 K, Crystal 1	429.8 J/K/mol
443 K, Crystal 1	431.6 J/K/mol
444 K, Crystal 1	434 J/K/mol
445 K, Crystal 1	436.5 J/K/mol
446 K, Crystal 1	438.9 J/K/mol
447 K, Crystal 1	441.4 J/K/mol
448 K, Crystal 1	444.5 J/K/mol
449 K, Crystal 1	449.1 J/K/mol
450 K, Crystal 1	451.5 J/K/mol
451 K, Crystal 1	454.3 J/K/mol
452 K, Crystal 1	458.9 J/K/mol
453 K, Crystal 1	463.4 J/K/mol
454 K, Crystal 1	469 J/K/mol
455 K, Crystal 1	476 J/K/mol
456 K, Crystal 1	484.1 J/K/mol
457 K, Crystal 1	494.9 J/K/mol
458 K, Crystal 1	508.9 J/K/mol and 511.7 J/K/mol
458.15 K, Crystal 1	511.7 J/K/mol
459 K, Crystal 1	532.4 J/K/mol
460 K, Crystal 1	561.4 J/K/mol
